Reference: patent US20240109925A1, “Enhanced Anti-Proliferative and Antitumor Immune Effects of Mitochondria-Targeted Hydroxyurea” (The Medical College of Wisconsin, Inc., priority 2021, published 2024)
“Also recorded” adds a separate entry of the source. Like-named read-outs stand apart in the source and are kept apart here. Blank lines part the entries; values can stand above or below the compound they belong to.

How the values were obtained:
Type in all cases: cell-based
[1] = system: HCT116 human colon cancer cells; assay: Cell proliferation (cell confluence), IncuCyte Live-Cell Analysis system
[2] = system: HCT116 human colon cancer cells; assay: as above; settings: for IC50: Homo sapiens, HCT-116, at ~90% confluence of control; for IC50 / inhibition of proliferation of HCT116 cells: HCT116; for Cell Confluence (%): when control cells reached ~90% confluence, n = 4
Source text: FIG. 1. Effects of HU and Mito-HUs on proliferation of HCT116 human colon cancer cells (A) Effects of HU and Mito-HUs on the proliferation of HCT116 cells were monitored in the IncuCyte Live-Cell Analysis system. The IncuCyte Analyzer provides real-time updates on cell confluence, based on segmentation of high definition-phase contrast images. Representative cell images were shown as segmentation mask illustrated in brown when control cells reached 90% confluence (vertical solid black line). (B) The IC50 values were determined at the point at which control cells reached ˜90% confluence (vertical solid black line). Relative cell confluence (control is taken as 100%) is plotted against concentration. Dashed lines represent the fitting curves used to determine the IC50 values as indicated. Data shown are the means & SD.
(§1) The following cell lines were obtained from the American Type Culture Collection (Manassas, VA), where they were regularly authenticated: HCT116 (ATCC Cat #CRL-247, human colon cancer cells) and MiaPaCa-2 (ATCC Cat #CRL-1420, human pancreatic cancer cells). All cells were cultured in a humidified incubator at 37° C. and 5% carbon dioxide. HCT116 cells were maintained in RPMI 1640 medium (Thermo Fisher Scientific, Cat #11875), supplemented with 10% fetal bovine serum. MiaPaCa-2 cells were maintained in Dulbecco's Modified Eagle Medium (Thermo Fisher Scientific, Waltham, MA; Cat #11965) supplemented with 10% fetal bovine serum. All cells were stored in liquid nitrogen and used within 20 passages after thawing.
(§2) The IncuCyte Live-Cell Analysis system (Essen Bioscience Inc., Ann Arbor, MI) was used to monitor cell proliferation (Cheng et al., 2013, 2016; Boyle et al., 2018). As shown in previous publications (Cheng et al., 2013, 2016), this imaging system is probe-free and noninvasive, and enables continuous monitoring of cell confluence over several days. The increase in the percentage of cell confluence was used as a surrogate marker of cell proliferation. In a 96-well plate, cells were plated at 1,000 cells per well in triplicates and left to adhere overnight. Cells were then treated with HU and Mito-HUs, and the cell confluency was recorded over several days in the IncuCyte Live-Cell Analysis system.

[3] = system: MiaPaCa-2 human pancreatic cancer cells; assay: Cell proliferation, IncuCyte Live-Cell Analysis system
Source text: FIG. 7. Effects of HU and Mito10-HU on proliferation of MiaPaCa-2 human pancreatic cancer cells; MiaPaCa-2 cells treated with HU or Mito10-HU were monitored in the IncuCyte Live-Cell Analysis system. Cell proliferation was monitored in real-time with the continuous presence of indicated treatments until the end of each experiment. Data shown are the means±SD.
as §1, §2

mitochondrial complex I = mitochondrial complex I (Homo sapiens, UniProt O75251+O75306+P03886); assay: Complex I-dependent oxygen consumption (OCR), Seahorse XF-96, HCT116 cells; settings: HCT116, 24 hr
Procedure: (§3) FIG. 2. Effects of HU and Mito-HUs on the oxygen consumption by mitochondrial complexes I and III (A) Dose-dependent effects of HU, Mito10-HU, Mito12-HU, Mito14-HU, Mito16-HU, and Mito20-HU on complex I- and complex III-dependent oxygen consumption were measured in HCT116 cells. HCT116 cells were treated with HU or Mito-HUs as indicated for 24 hr. Mitochondrial complex I activity (left) and complex III activity (right) were monitored by a Seahorse XF-96 analyzer. Either rotenone (complex I inhibitor) or antimycin A (complex III inhibitor) was acutely added and OCR assayed immediately. (B) The mitochondrial complex I (left) and III (right) dependent oxygen consumption (calculated as rotenone or antimycin A inhibitable OCR) are plotted against concentration of HU and Mito-HUs. Dashed lines represent the fitting curves used for determination of the IC50 values. Data shown are the means G SD.
(§4) Mitochondrial oxygen consumption was measured using the Seahorse XF-96 Extracellular Flux Analyzer (Agilent, North Billerica, MA) (Cheng et al., 2013, 2016; Boyle et al., 2018; Weinberg and Chandel, 2015). After cells were treated with HU or Mito-HUs for 24 hr, the OCR-based assessment of mitochondrial complex activities was carried out on acutely permeabilized cells in the presence of different mitochondrial substrates, i.e., pyruvate/malate for complex I and duroquinol for complex III (Cheng et al., 2016, 2019; Salabei et al., 2014; Wheaton et al., 2014). Rotenone, malonate, and antimycin A (Sigma-Aldrich, St. Louis, MO) were used as specific inhibitors of mitochondrial complexes I, II, and III, respectively. Briefly, cells that were intact after treatments were immediately permeabilized using the Seahorse XF Plasma Membrane Permeabilizer (Agilent). The mitochondrial complex I-induced OCR was assayed in mannitol and sucrose buffer (Salabei et al., 2014) containing 10 mM pyruvate and 1.5 mM malate (substrates for complex I) and 10 mM malonate (which inhibits complex II activities). The mitochondrial complex III-driven OCR was assayed in a mannitol and sucrose buffer containing 0.5 mM duroquinol (substrate for complex III) as well as […] and 10 mM malonate (which inhibit both complex I and II activities). The IC50 values were determined as previously reported (Cheng et al., 2019).

[4] = molecular target: T1, mitochondrial complex III (Homo sapiens, UniProt P00156+P47985); assay: Complex III-dependent oxygen consumption (OCR), Seahorse XF-96, HCT116 cells; settings: HCT116, 24 hr
T1 construct: other: mean ± SD; HCT116, 24 hr treatment; Complex III activity (OCR, % of control); other: 0.1 μM, 24 hr, HCT116; n = 4; other: 0.5 μM, 24 hr, HCT116; other: 0.75 μM, 24 hr, HCT116; other: 1 μM, 24 hr, HCT116; Compl
Procedure: as §3, §4

[5] = read-out: IC50 proliferation of HCT116 cells

Structure (SMILES): Cc1[nH]nc(C(F)(F)F)c1Cc1sc2c(c1C(=O)N1C[C@](C)(O)CO1)c(=O)n(C)c(=O)n2C(C)C [AZD-3965, reference compound]
- antiproliferative effect, each alone (AZD-3965 experiment) ([1]; Mito10-HU (5 μM) or AZD-3965 (100 μM) independently, HCT-116): negligible antiproliferative effects

- IC50 [2, 5]: > 600 µM
Structure (SMILES): CCCCCCCCCCONC(N)=O [Decyl-HU, decyloxyurea, reference compound]

Structure (SMILES): NC(=O)NOCCCC[P+](c1ccccc1)(c1ccccc1)c1ccccc1.O=C([O-])C(F)(F)F [Mito4-HU, 4-[(carbamoylamino)oxy]-butyltriphenylphosphonium trifluoroacetate]
- Cell Confluence (%) ([2]; 100 μM): 92.40%
- Cell Confluence (%) ([2]; 200 μM): 90.77%
- Cell Confluence (%) ([2]; 400 μM): 80.77%
- Cell Confluence (%) ([2]; 600 μM): 47.24%
- inhibition of proliferation of HCT116 cells ([2]; trifluoroacetate): dose-dependently inhibited proliferation; also recorded: lower than that of HU
- IC50 [2, 5]: > 600 µM
- IC50 ([2]; mean ± SD, read-out: IC50 Cell Proliferation (FIG. 1)): > 600 µM
- inhibition of proliferation of MiaPaCa-2 cells [3]: did not inhibit the proliferation

Structure (SMILES): O=C(NO)NC(=O)NCCCCCCCCCC[P+](c1ccccc1)(c1ccccc1)c1ccccc1.O=C([O-])C(F)(F)F [Mito10-HUNHTPP^+, 10-[(hydroxycarbamoyl)carbamoylamino]-decyltriphenylphosphonium trifluoroacetate]
- inhibition of proliferation of HCT116 cells [2]: inhibited HCT116 cell proliferation

Structure (SMILES): Cc1ccc([P+](CCCCCCCCCCONC(N)=O)(c2ccc(C)cc2)c2ccc(C)cc2)cc1.O=C([O-])C(F)(F)F [Mito10-HUtriMe, 10-[(carbamoylamino)oxy]-decyl-tris-p-tolylphosphonium trifluoroacetate]
- IC50 [2, 5]: 3.7 µM
- effect on complex I-induced oxygen consumption (mitochondrial complex I): more potently than Mito10-HU
- effect on complex III-induced oxygen consumption [4]: more potently than Mito10-HU

Structure (SMILES): CCOC(=O)Oc1c(OC)cc(C(=O)O[C@@H]2C[C@@H]3CN4CCc5c([nH]c6cc(OC)ccc56)[C@H]4C[C@@H]3[C@H](C(=O)OC)[C@H]2OC)cc1OC [syrosingopine, reference compound]
- effect on cell proliferation, each alone (syrosingopine experiment) ([1]; Mito10-HU (5 μM) or syrosingopine (7.5 μM) independently, HCT116): minimally affected cell proliferation
